Patent publication US9522873B2, “Biphenyl derivative, pharmaceutically acceptable salt thereof, and methods for preventing or treating inflammatory diseases or autoimmune diseases” (Dongguk University Industry-Academic Cooperation Foundation, priority 2011, dated 2016)

What was measured:
Format in all cases: in vivo
[1] = system: TPA-induced ear edema (inflammation) mouse models; assay: TPA-induced ear edema (inflammation) mouse model: ear weight and H&E staining; details: ICR male mice, 20 μl of 0.3% and 1% applied to left ear 1 hour and 6 hours after TPA, harvested after 24 hours
Experimental: (§1) The following experiment was performed using tetradecanoyl phorbol acetate (TPA)-induced ear edema (inflammation) mouse models to analyze the anti-inflammatory activity of the novel biphenyl compounds obtained in Example 1. The TPA-induced ear edema mouse model has been widely used to investigate the mechanism of the inflammatory response and the effects of inhibitory substances (Agents and Actions. 1989. 26; 335-341). More specifically, 6-week-old ICR male mice were prepared, and each 20 μl of a TPA solution dissolved in acetone at a concentration of 125 μg/ml was applied to the left ears of mice. After 1 hour of the TPA application, each 20 μl of the solvent or compound 6 (0.3% and 1%) prepared in Example 1 and dissolved in the solvent was applied to the left ears of mice and reapplied after 6 hours of the TPA application. Indomethacin, an anti-inflammatory agent, was applied to the positive control group. Each predetermined area of the left ears of mice was harvested after 24 hours of the TPA application. The weight of each of the left ears of mice was measured, and H&E staining and immunohistochemical staining were performed on ear tissues.

[2] = system: inflammation-related protein p65; assay: TPA-induced ear edema mouse model: immunohistochemical staining of ear tissue for p65; details: ear tissue of TPA-treated ICR mice, 24 hours after TPA, FIG. 7
Experimental: as §1

[3] = system: anti-inflammatory protein IkB (inhibitory kappa B); assay: TPA-induced ear edema mouse model: immunohistochemical staining of ear tissue for IkB; details: ear tissue of TPA-treated ICR mice, 24 hours after TPA, FIG. 8
Experimental: as §1

`CCCCC(=O)N(Cc1ccc(-c2ccccc2C(=O)N2CCN(C)CC2)cc1)c1ccccc1` [compound 4, N-[(2′-(4-methylpiperazine-1-carbonyl)biphenyl-4-yl)methyl]-N-phenylpentanamide] was tested, and the “inflammation and edema induced by TPA (ear weight)” value ([1]; FIG. 5) was “inhibited”, the “ear tissues thickened by the edema induced by TPA (H&E staining)” value ([1]; FIG. 6) was “recovered to normal level” and the “expression of inflammation-related protein p65” value [2] was “decreased”. The “expression of anti-inflammatory protein IkB (inhibitory kappa B)” value [3] was “increased”.
